Experimental data: US20250339547A1, “MET BCL-XL INHIBITOR ANTIBODY-DRUG CONJUGATES AND METHODS OF USE THEREOF” (Novartis AG, priority 2022, published 2025)
pIC50: −log10 of the molar value.

Legend:
SNU-5 [1] = assay: In vitro activity in SNU-5 cell line (CTG 120h), Example 6; format: cell-based; details: Homo sapiens, SNU-5, 120 h, SNU-5, CTG 120 h
Protocol: (§1) Cell lines were cultured in the media described above at 37° C. in a humidified atmosphere containing 5% CO2. Cells were seeded in 96 well clear bottom plates (96 well clear-bottom, white, Corning reference 3903) and exposed to the mAbs or ADCs for 120h (serially diluted; 9 concentrations each, triplicates). Effects of mAbs or ADCs on cell viability were assessed after 5 days of incubation at 37° C./5% CO2 by quantification of cellular ATP levels using CellTiter-Glo reagent (Promega Ref: G7571) at 75 μL reagent/well. All the conditions were tested in triplicates. Luminescence was quantified on a multipurpose plate reader. IC50s were calculated using standard four-parametric curve fitting. IC50 is defined as the compound concentration at which the CTG signal is reduced to 50% of that measured for the control. Two independent experiments were performed (N1 and N2). IC50 data of each experiment and the arithmetic mean is shown in Table 14 for all the antibodies and ADCs tested.

LOUNH-91 = assay: In vitro activity in LOUNH-91 cell line (CTG 120h), Example 6; format: cell-based; details: LOU-NH91, 120 h, LOUNH91, CTG 120 h
Protocol: as §1

SNU-5 [2] = assay: In vitro activity in SNU-5 cell line (CTG 120h), Example 12; format: cell-based; details: Homo sapiens, SNU-5, 120 h, SNU5, CTG 120 h
Protocol: EBC-1 and SNU-5 cell lines were cultured in the media described above at 37° C. in a humidified atmosphere containing 5% CO2. […] Effects of mAbs or ADCs on cell viability were assessed after 5 days of incubation at 37° C./5% CO2 by quantification of cellular ATP levels using CellTiter-Glo reagent (Promega Ref: G7571) at 75 μL reagent/well. All the conditions were tested in triplicates. Luminescence was quantified on a multipurpose plate reader. IC50s were calculated using standard four-parametric curve fitting. […] Two independent experiments were performed (N1 and N2).

[3] = system: HCC78 lung cancer cell line; assay: HCC78 viability, single agents or 1:1 combination with paclitaxel (CTG 120h), Example 13; format: cell-based; details: Homo sapiens, HCC78, 120 h
Protocol: HCC78 lung cancer cell line was cultured in the media described above at 37° C. in a humidified atmosphere containing 5% CO2. […] When in 1:1 combination, both paclitaxel and the mAb or ADC were serially diluted (9 concentrations each, triplicates). Effect on cell viability was assessed after 5 days of incubation at 37° C./5% CO2 by quantification of cellular ATP levels using CellTiter-Glo reagent (Promega Ref: G7571) at 75 μL reagent/well. All the conditions were tested in triplicates. Luminescence was quantified on a multipurpose plate reader. IC50s were calculated using standard four-parametric curve fitting. […] Two independent experiments were performed (N1 and N2).

H1650 xenografts = assay: In vivo efficacy alone or with paclitaxel in Met non amplified NCI-H1650 lung adenocarcinoma human cell model, Example 15; parameters: species or system SCID mice; details: paclitaxel 12.5 mg/kg IV at day 1, 8 and 15, single agent
Protocol: Below are the procedures for determining the in vivo therapeutic effect of a Bcl-xL ADC targeting the Met protein as a single agent or in combination with paclitaxel. Their activities were compared to the corresponding naked anti-Met mAb or Ab G-L42C-P25 (non-targeting ADC) formulated in Phosphate-Buffered Saline (PBS) in a Met non amplified NCI-H1650 lung adenocarcinoma human cell line after intravenous (IV) administration.
NCI-H1650 cells, obtained from ATCC, were cultured in RPMI supplemented with 10% SBS, 1% Penicillin-Streptomycin and 1% HEPES. Cells were resuspended in 50% Matrigel® (Corning®) and 0.1 ml containing 10×10^6 cells were subcutaneously inoculated into the right flank of female SCID mice, provided by Charles River.
Mice body weight was monitored 3 times a week and tumor size measured using electronic calipers. Tumor volume was estimated by measuring the minimum and maximum tumor diameters using the formula: (minimum diameter)2(maximum diameter)/2.
With DTV (Delta Tumor Volume) at Dx, calculated being TV at Dx−TV at Randomization.
Mice were sacrificed at the first measurement for which tumor volume exceeded 2000 mm3 or at the first signs of animal health deterioration. […] SCID mice were maintained according to institutional guidelines.

[4] = system: pancreatic cancer cell lines; assay: Pancreatic cancer cell line panel of Example 10 (CTG 120h); format: cell-based; details: pancreatic cancer cell lines of Table 16, single agents
Protocol: Cell lines were cultured in the media described above at 37° C. in a humidified atmosphere containing 5% CO2. […] When in 1:1 combination, both the combining partner (Paclitaxel, Trametinib or Gemcitabine) and the mAb or ADC were serially diluted (9 concentrations each, triplicates). Effect on cell viability was assessed after 5 days of incubation at 37° C./5% CO2 by quantification of cellular ATP levels using CellTiter-Glo reagent (Promega Ref: G7571) at 75 μL reagent/well. All the conditions were tested in triplicates. Luminescence was quantified on a multipurpose plate reader. IC50s were calculated using standard four-parametric curve fitting. […] Two independent experiments were performed (N1 and N2).

pIC50 (SNU-5 [1]; mean) | pIC50 (SNU-5 [1]; n = 1) | pIC50 (SNU-5 [1]; n = 2) | pIC50 (LOUNH-91; mean) | pIC50 (LOUNH-91; n = 1) | pIC50 (LOUNH-91; n = 2) | pIC50 (SNU-5 [2]; Mean) | pIC50 (SNU-5 [2]; N1) | pIC50 (SNU-5 [2]; N2) | pIC50 ([3]; Mean) | pIC50 ([3]; N1) | pIC50 ([3]; N2) | Compound | TGI % (d 18) (H1650 xenografts) | effect on the viability [4]
4.97 | 4.97 | 4.97 | 8.15 | 8.19 | 8.11 | 5.26 | 5.26 | < 4.52 |  |  |  | Cc1c(Nc2nc3ccccc3s2)nnc2c1CCCN2c1ccc(-c2cnn(C[C@]34C[C@]5(C)C[C@](C)(C3)C[C@@](OCCNCCCO)(C5)C4)c2C)c(C(=O)O)n1 [P25, 6-[3-(1,3-benzothiazol-2-ylamino)-4-methyl-6,7-dihydro-5H-pyrido[2,3-c]pyridazin-8-yl]-3-[1-[[3-[2-(3-hydroxypropylamino)ethoxy]-5,7-dimethyl-1-adamantyl]methyl]-5-methyl-pyrazol-4-yl]pyridine-2-carboxylic acid] |  | 
 |  |  |  |  |  |  |  |  | 8.19 | 8.22 | 8.16 | CC(=O)O[C@H]1C(=O)[C@@]2(C)[C@H]([C@H](OC(=O)c3ccccc3)[C@]3(O)C[C@H](OC(=O)[C@H](O)[C@@H](NC(=O)c4ccccc4)c4ccccc4)C(C)=C1C3(C)C)[C@]1(OC(C)=O)CO[C@@H]1C[C@@H]2O [Paclitaxel, paclitaxel] | −14.4% | induced dose dependent decrease in cell viability with measurable IC50 for most of the cell lines
